Assay results from US9868748B2, “Thiazolopyrrolidine inhibitors of ROR- γ” (Vitae Pharmaceuticals, Inc., priority 2013, dated 2018).
Like-named read-outs stand apart in the source and are kept apart here.

What was measured:
[1] = molecular target: recombinant RORγ Ligand Binding Domain (LBD) protein (Homo sapiens (Human), UniProt P51449); assay: Radio-Ligand RORγ Binding Assay (Assay 1); details: competition with 25-hydroxy [26,27-3H]-cholesterol, SPA; Table 9; read-out: RORγ Binding Ki Range*
Description: Radio-Ligand RORγ Binding Assay (Assay 1)
Compounds of the present invention were tested for ability to bind to RORγ in a cell-free competition assay with commercially available radio-ligand (RL), 25-hydroxy [26,27-^3H]— cholesterol (PerkinElmer, Cat. # NET674250UC), for a ligand binding site on a recombinant RORγ Ligand Binding Domain (LBD) protein expressed as a 6×His-Glutathione-S-Transferase (GST) fusion (“6×His” disclosed as SEQ ID NO: 2). The assay was performed in 96-well SPA plates (PerkinElmer, Cat. #1450-401) in 50 mM HEPES buffer, pH 7.4, containing 150 mM NaCl, 5 mM MgCl2, 10% (v/v) glycerol, 2 mM CHAPS, 0.5 mM β-octylglucopyranoside and 5 mM DTT. Tested compounds were dissolved in DMSO, and semi-log (3.162×) serial dilutions of the compounds were prepared in the same solvent. Two μL of the DMSO solutions were mixed with 28 μL of 8.6 nM 25-hydroxy [26,27-^3H]— cholesterol and 50 μL of 24 nM RORγ LBD. The plate was shaken at 700 rpm for 20 min and incubated for 10 min at rt, after which 40 μL of poly-Lys YSi SPA beads (PerkinElmer, Cat. # RPNQ0010) were added to achieve 50 μg of the beads per well. The plate was incubated on an orbital shaker for 20 min and then for 10 min without agitation at rt. SPA signal for tritium beta radiation was registered on PerkinElmer Microbeta plate reader. Percent inhibition values were calculated based on the high signal obtained with DMSO control and the low signal observed with 10 μM standard RORγ inverse agonist T0901317 (SigmaAldrich, Cat. # T2320). The percent inhibition vs. concentration data were fit into a four-parameter model, and […] values were calculated from the fit as the concentrations corresponding to the inflection points on the dose-response curves. Inhibitory constants (Ki) were calculated using the following equation, where [RL] is the concentration in the assay and KD is a dissociation constant of 25-hydroxy [26,27-^3H]-cholesterol: […]

[2] = molecular target: full-length RORγt in Jurkat cells (Homo sapiens (Human), UniProt P51449); assay: RORγt 5xRORE Assay in Jurkat Cells (Assay 2); assay type: cell-based; details: Nanoluc luciferase reporter, 16-18 hrs
Chain of full-length RORγt in Jurkat cells (P51449 other isoform, or with tags, fused parts or gaps): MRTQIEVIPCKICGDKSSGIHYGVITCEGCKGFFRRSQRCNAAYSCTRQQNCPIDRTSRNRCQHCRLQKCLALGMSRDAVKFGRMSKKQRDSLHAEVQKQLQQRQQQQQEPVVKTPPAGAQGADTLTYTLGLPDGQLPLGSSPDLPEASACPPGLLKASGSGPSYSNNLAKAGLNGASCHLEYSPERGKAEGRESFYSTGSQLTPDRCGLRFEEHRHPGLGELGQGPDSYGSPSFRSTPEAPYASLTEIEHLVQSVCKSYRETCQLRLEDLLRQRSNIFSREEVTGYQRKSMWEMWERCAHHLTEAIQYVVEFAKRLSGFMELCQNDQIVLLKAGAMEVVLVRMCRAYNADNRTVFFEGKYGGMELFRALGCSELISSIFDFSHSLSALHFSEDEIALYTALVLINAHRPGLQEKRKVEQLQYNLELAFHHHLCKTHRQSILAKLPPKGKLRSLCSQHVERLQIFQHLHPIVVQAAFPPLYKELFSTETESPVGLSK
Description: [formula] RORγt 5xRORE Assay in Jurkat Cells (Assay 2)
Compounds of the present invention were tested for RORγ inverse agonist activity in a cell-based, transcriptional activity assay. Secreted Nanoluc® luciferase was used as a reporter for transcriptional activity of the full-length RORγt in Jurkat cells (ATCC, Cat. # TIB-152). A reporter plasmid was constructed by inserting 5 repeats of the ROR Response Element (RORE) […] (SEQ ID NO:1) into a commercially available promoterless plasmid pNL1.3[secNluc] (Promega, Cat. # N1021) using KpnI and HindIII restriction sites. The expression plasmid for RORγt was purchased (Geneocopoeia, Cat. # EX-T6988-M02). Jurkat cells (30 million cells) were transfected with 11 μg of EX-T6988-MO2 and 26 μg of the reporter plasmid in OptiMEM® media using Lipofectamine® LTX and Plus™ reagents (Life Technologies, Cat. #15338-100). After 5-6 h of incubation at 37° C./5% CO2, the cells were collected, resuspended in phenol-red free RPMI media containing 10% (v/v) delipidated FBS (Hyclone, Cat. # SH30855.03) and dispensed into 96-well clear bottom tissue culture plates (CoStar, Cat. #3603), at 80,000 cells per well. Tested compounds were added to the cells in the same media (final concentration of DMSO was 0.1% (v/v)), and the plates were incubated at 37° C./5% CO2 for 16-18 hrs. Luciferase activity in the conditioned supernatants was determined with NanoGlo® assay reagents (Promega, Cat. # N1130).

[3] = Table 9, read-out: RORγt5X IC50 Range*
[4] = Table 8, read-out: RORγt5X IC50 Range*

Chain of recombinant RORγ Ligand Binding Domain (LBD) protein (P51449 269-508): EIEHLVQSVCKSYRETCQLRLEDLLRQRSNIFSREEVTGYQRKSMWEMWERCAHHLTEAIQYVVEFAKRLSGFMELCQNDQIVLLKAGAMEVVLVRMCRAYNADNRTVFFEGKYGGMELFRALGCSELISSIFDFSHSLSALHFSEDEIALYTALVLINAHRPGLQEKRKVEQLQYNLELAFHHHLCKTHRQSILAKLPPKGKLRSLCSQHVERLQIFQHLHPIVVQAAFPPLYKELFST

| SMILES | Ki [1] [µM] | IC50 [2, 3] [µM] | IC50 [2, 4] [µM] |
| --- | --- | --- | --- |
| CCS(=O)(=O)c1ccc(CC(=O)Nc2nc3c(s2)CN(CC2CCC(F)(F)CC2)[C@H]3C(C)C)cc1 | < 0.1 | – | – |
| CC(C)[C@H]1c2nc(NC(=O)Cc3ccc(C(C)(C)C#N)cc3)sc2CN1Cc1ccc(Cl)cc1 | < 0.1 | 0.1 to 1 | – |
| CCS(=O)(=O)c1ccc(CC(=O)Nc2nc3c(s2)CN(C[C@H]2CC[C@H](O)CC2)[C@H]3C(C)C)cc1 | < 0.1 | < 0.1 | – |
| CC(C)[C@H]1c2nc(NC(=O)Cc3ccn4ccnc4c3)sc2CN1Cc1ccc(C(F)(F)F)cc1 | 0.1 to 1 | – | – |
| CCS(=O)(=O)c1ccc(CC(=O)Nc2nc3c(s2)CN(c2ncc(-c4ccc(=O)n(C)c4)s2)[C@H]3C(C)C)nc1 | > 1 | – | – |
| CC(C)[C@H]1c2nc(NC(=O)Cc3ccc(F)c(F)c3)sc2CN1Cc1ccc(C(F)(F)F)cc1 | 0.1 to 1 | 0.1 to 1 | – |
| CCS(=O)(=O)c1ccc(CC(=O)Nc2nc3c(s2)CN(CC2CCn4c(C)nnc4C2)[C@H]3C(C)C)cc1 (stereo partly shown) | 0.1 to 1 | > 1 | – |
| CC(C)[C@H]1c2nc(NC(=O)Cc3ccc(S(N)(=O)=O)cc3)sc2CN1Cc1ccc(C(F)(F)F)cc1 | < 0.1 | < 0.1 | – |
| CC(C)Oc1ccc(CC(=O)Nc2nc3c(s2)CN(Cc2ccc(Cl)cc2)[C@H]3C(C)C)cc1 | 0.1 to 1 | > 1 | – |
| CCS(=O)(=O)c1ccc(CC(=O)Nc2nc3c(s2)CN([C@H](C)c2c(F)cc(Cl)cc2F)[C@H]3C(C)C)cc1 | < 0.1 | < 0.1 | – |
| CCS(=O)(=O)c1ccc(CC(=O)Nc2nc3c(s2)CN(Cc2ccn(CC(F)(F)F)c(=O)c2)[C@H]3C(C)C)cc1 | < 0.1 | < 0.1 | – |
| CC(C)[C@H]1c2nc(NC(=O)Cc3ccc(-c4nnn(C)n4)cc3)sc2CN1Cc1ccc(Cl)cc1 | 0.1 to 1 | 0.1 to 1 | – |
| CC(C)[C@H]1c2nc(NC(=O)Cc3ccc(-c4nnnn4C)cc3)sc2CN1Cc1ccc(Cl)cc1 | 0.1 to 1 | > 1 | – |
| CC(C)[C@H]1c2nc(NC(=O)Cc3ccc(Br)cc3)sc2CN1Cc1ccc(Cl)cc1 | 0.1 to 1 | > 1 | – |
| CC(C)[C@H]1c2nc(NC(=O)Cc3ccc(Cl)cc3)sc2CN1Cc1ccc(Cl)cc1 | < 0.1 | > 1 | – |
| CC(C)[C@H]1c2nc(NC(=O)Cc3ccc(-c4nnn[nH]4)cc3)sc2CN1Cc1ccc(Cl)cc1 | 0.1 to 1 | > 1 | – |
| CCS(=O)(=O)c1ccc(CC(=O)Nc2nc3c(s2)CN(C[C@H]2CC[C@H](OC)CC2)[C@H]3C(C)C)cc1 | < 0.1 | 0.1 to 1 | – |
| CCS(=O)(=O)c1ccc(CC(=O)Nc2nc3c(s2)CN(C2CCC(C(F)(F)F)CC2)[C@H]3C(C)C)cc1 (stereo partly shown) | < 0.1 | 0.1 to 1 | – |
| COc1ccc(CC(=O)Nc2nc3c(s2)CN(Cc2ccc(Cl)cc2)[C@H]3C(C)C)cc1 | < 0.1 | > 1 | – |
| CC(C)[C@H]1c2nc(NC(=O)Cc3ccccc3)sc2CN1Cc1ccc(Cl)cc1 | 0.1 to 1 | > 1 | – |
| CC(C)[C@H]1c2nc(NC(=O)Cc3ccc(S(C)(=O)=O)cc3)sc2CN1Cc1ccn(C(F)F)c(=O)c1 | < 0.1 | 0.1 to 1 | – |
| CCS(=O)(=O)c1ccc(CNC(=O)c2nc3c(s2)CN(Cc2ccc4c(c2)OC(F)(F)O4)[C@H]3C(C)C)nc1 | < 0.1 | < 0.1 | – |
| CCS(=O)(=O)c1ccc(CNC(=O)c2nc3c(s2)CN(Cc2ccc4nonc4c2)[C@H]3C(C)C)nc1 | < 0.1 | 0.1 to 1 | – |
| CCS(=O)(=O)c1ccc(CC(=O)Nc2nc3c(s2)CN(CC2CCOCC2)[C@H]3C(C)C)cc1 | < 0.1 | > 1 | – |
| CCS(=O)(=O)c1ccc(CC(=O)Nc2nc3c(s2)CN(C[C@H]2CC[C@H](C#N)CC2)[C@H]3C(C)C)cc1 | < 0.1 | < 0.1 | – |

| SMILES | Ki [1] [µM] | IC50 [2, 3] [µM] | IC50 [2, 4] [µM] |
| --- | --- | --- | --- |
| CCS(=O)(=O)c1ccc(CC(=O)Nc2nc3c(s2)CN(C[C@H]2CC[C@H](C(N)=O)CC2)[C@H]3C(C)C)cc1 | < 0.1 | 0.1 to 1 | – |
| CCS(=O)(=O)c1ccc(CC(=O)Nc2nc3c(s2)CN(Cc2ccn(C(F)F)c(=O)c2)[C@H]3C(C)C)cc1 | < 0.1 | < 0.1 | – |
| CCS(=O)(=O)c1ccc(CNC(=O)c2nc3c(s2)CN(Cc2ccc(C(F)F)cc2)[C@H]3C(C)C)nc1 | < 0.1 | < 0.1 | – |
| CC[C@H]1c2nc(NC(=O)Cc3ccc(S(=O)(=O)C(F)F)cc3)sc2CN1Cc1ccc(Cl)cc1 | < 0.1 | 0.1 to 1 | – |
| CCS(=O)(=O)c1ccc(CNC(=O)c2nc3c(s2)CN(Cc2cnc(C(F)(F)F)nc2)[C@H]3C(C)C)cc1 | 0.1 to 1 | 0.1 to 1 | – |
| CCS(=O)(=O)c1ccc(CNC(=O)c2nc3c(s2)CN(Cc2ccc(C(F)(F)F)nc2)[C@H]3C(C)C)cc1 | 0.1 to 1 | 0.1 to 1 | – |
| CCS(=O)(=O)c1ccc(CC(=O)Nc2nc3c(s2)CN(Cc2ccn(C4CC4)c(=O)c2)[C@H]3C(C)C)cc1 | < 0.1 | 0.1 to 1 | – |
| CC(C)[C@H]1c2nc(NC(=O)Cc3ccc(S(C)(=O)=O)cc3)sc2CN1Cc1ccc(-c2nnn[nH]2)cc1 | 0.1 to 1 | > 1 | – |
| CC[C@H]1c2nc(NC(=O)Cc3ccc(S(=O)(=O)CC)cc3)sc2CN1Cc1ccc2nc[nH]c2c1 | < 0.1 | 0.1 to 1 | – |
| CCS(=O)(=O)c1ccc(CC(=O)Nc2nc3c(s2)CN(C[C@H]2CC[C@@H](C(=O)O)CC2)[C@H]3C(C)C)cc1 | 0.1 to 1 | > 1 | – |
| CCS(=O)(=O)c1ccc(CC(=O)Nc2nc3c(s2)CN(Cc2ccc(=O)n(C)c2)[C@H]3C(C)C)cc1 | < 0.1 | 0.1 to 1 | – |
| CCS(=O)(=O)c1ccc(CC(=O)Nc2nc3c(s2)CN(Cc2ccc(C(F)(F)F)nn2)[C@H]3C(C)C)cc1 | < 0.1 | < 0.1 | – |
| CC(C)[C@H]1c2nc(NC(=O)Cc3ccc(S(C)(=O)=O)cc3)sc2CN1Cc1ccc(C(F)(F)F)nn1 | 0.1 to 1 | 0.1 to 1 | – |
| CCS(=O)(=O)c1ccc(CC(=O)Nc2nc3c(s2)CN(Cc2ccc(C(F)(F)F)nc2)C3C(C)C)nc1 (stereo not shown) | < 0.1 | < 0.1 | – |
| CCS(=O)(=O)c1cnc(CNC(=O)c2nc3c(s2)CN(Cc2ccc(C#N)cc2)[C@H]3C(C)C)nc1 | < 0.1 | 0.1 to 1 | – |
| CCS(=O)(=O)c1cnc(CNC(=O)c2nc3c(s2)CN(Cc2ccc(C(F)(F)F)cc2)[C@H]3C(C)C)nc1 | < 0.1 | 0.1 to 1 | – |
| CC(C)[C@H]1c2nc(NC(=O)Cc3ccc(C#N)cc3)sc2CN1Cc1ccc(C#N)c(OC(F)F)c1 | < 0.1 | 0.1 to 1 | – |
| CCS(=O)(=O)c1ccc(CC(=O)Nc2nc3c(s2)CN(C[C@H]2C[C@H](C(N)=O)C2)[C@H]3C(C)C)cc1 (relative stereo) | 0.1 to 1 | – | – |
| CCS(=O)(=O)c1ccc(CC(=O)Nc2nc3c(s2)CN(C[C@@H]2CC[C@@H](C(F)(F)F)NC2)[C@H]3C(C)C)nc1 (single isomer, unassigned) | 0.1 to 1 | – | – |
| CCS(=O)(=O)c1ccc(CC(=O)Nc2nc3c(s2)CN([C@@H](C)Cc2ccc(F)cc2)[C@@H]3C(C)C)cc1 (single isomer, unassigned) | 0.1 to 1 | – | – |
| CC(C)[C@@H]1c2nc(NC(=O)Cc3ccc(S(C)(=O)=O)cc3)sc2CN1[C@@H](C)c1ccc(C(F)(F)F)cc1 (single isomer, unassigned) | 0.1 to 1 | – | – |
| CC[C@@H]1c2nc(NC(=O)Cc3ccc(S(C)(=O)=O)cc3)sc2CN1[C@@H](C)c1ccc(OC(F)(F)F)cc1 (single isomer, unassigned) | 0.1 to 1 | – | – |
| CCS(=O)(=O)c1ccc(CC(=O)Nc2nc3c(s2)CN(C[C@@H]2CC[C@@H](C(F)(F)F)N(C)C2)[C@H]3C(C)C)cc1 [I-A30] | – | – | < 0.1 |
| CCS(=O)(=O)c1ccc(CC(=O)Nc2nc3c(s2)CN(Cc2ccc4c(c2)OC(F)(F)O4)[C@H]3C(C)C)nc1 [I-L3] | – | – | < 0.1 |
